The text below walks through data of patent US20260256668A1, “METHODS FOR STRENGTHENING AND REPAIRING HAIR” (Living Proof, Inc., priority 2023, published 2026).

Assay [1] is described as follows: Hair denaturation temperature (Td) by differential scanning calorimeter (DSC). To be noted: 3× bleached hair; for hair denaturation temperature (Td) compared to bleached, virgin and phytic acid (PA) treated hair: 2 wt % active aqueous solution, pH 4.0-4.5, 10 min, blow dry (FIGS. 4, 6, 7). How it is done: European virgin brown hair was bleached three times to obtain the 3× bleached hair model. Each bleaching was done with a mixture of bleaching powder (BW2) and 40V clear developer at 1:2 ratio (5 g mixture per 1.5 g of hair) for 1 hour at room temperature, followed by 30 s water rinse, 1× wash with Sodium Lauryl Ether Sulfate (SLES), and dried in a humidity chamber for 15 min at 50° C., 20% RH. […] For each DSC measurement, a 3-5 mg of hair sample in 50 μL Deionized water is sealed and equilibrated (overnight) in a stainless-steel pressure resistant high-volume pan, then heated from 25° C. to 180° C. at a 5° C./min heating rate.

The nature of assay [2]: Dia-Stron single fiber tensile (mechanical) testing. To be noted: 3× bleached hair, compared to bleached hair before treatment (FIG. 8). How it is done:
All single fiber tensile measurements are performed using a Dia-Stron MTT686/MTT690 (under 100% extension at gauge force of […], break threshold of 5 g, rate of 20 mm/min, maximum force of 2000 gmf and premature failure threshold of 10% strain). Before the tensile testing, all hair fibers (30 mm in length, ≥20 fibers per treatment) are fixed by 2 brass crimps at the ends and mounted on a Dia-Stron tray. Initial dimension measurements are collected using a Dia-Stron FDAS770 (double ended samples, sample size of 30 mm in length, no of slices of 5 under one rotation per slice), followed by equilibration in Deionized water for at least 2 h prior to testing.

A short description of assay [3]: Water contact angle (surface hydrophobicity), DSA100M Drop Shape Analyzer. How it is done: For this test, […], which was prepared by treating European virgin brown hair with a mixture of BW2 bleaching powder and clear 30 V developer (1:1.5 ratio, 5 g mixture per 1.5 g of hair) for 20 min under a Belvedere hooded dryer with high heat setting, followed by 30 s water rinse, 30 s 10% SLES wash, and air dry at room temperature. […] In the DSA method, a single hair fiber is mounted in a sample holder and focused by the digital camera of DSA100M. Then a droplet of filtered DI water (20-60 nL) is applied to the top of the hair fiber by a digital droplet applier, A video is then recorded until the disappearance of the water droplet. The water contact angle is obtained using the first image of the water droplet recorded. The data is collected for 3 fibers per treatment and 3 points per fiber, a total of 9 data points per treatment.

As for `NCP(=O)(O)O` [AMPA, Aminomethyl phosphonic acid], in assay [1], the “hair denaturation temperature (Td) compared to bleached, virgin and phytic acid (PA) treated hair” value is given as “full recovery of Td to the virgin level”. In addition, the “Young's modulus” value in assay [2] is reported as “biggest increases in Young's modulus”.

Consider `CCCCCCCCCCCCOP(=O)(O)O` [DPhate, Lauryl phosphate], for which, in assay [3] (ethanol solution 2 wt %, 10 min, blow dry (FIG. 12)), the “water contact angle relative to virgin hair” value is “recovered significantly and close to the virgin level”.

Regarding `O=P(O)(O)O[C@H]1[C@H](OP(=O)(O)O)[C@@H](OP(=O)(O)O)[C@H](OP(=O)(O)O)[C@@H](OP(=O)(O)O)[C@H]1OP(=O)(O)O` [PA, phytic acid, reference compound], the “hair denaturation temperature (Td) compared to the base formula” value in assay [1] (washed, 0.25 g formula (PA 0.75 wt %, with or without DPhate 1 wt %) 10 min, blow dried (FIG. 17)) is “significantly increased Td”. Also, the “hair surface hydrophobicity (water contact angle) compared to base formula” value in assay [3] (formula with PA 0.75 wt %, with or without DPhate 1 wt % (FIG. 18)) is recorded as “significantly improved hair surface hydrophobicity”.

For `C=CP(=O)(O)O` [VPA, Vinyl phosphonic acid], the “hair denaturation temperature (Td) compared to bleached, virgin and phytic acid (PA) treated hair” value in assay [1] is “full recovery of Td to the virgin level”. Besides, the “Young's modulus” value in assay [2] is given as “biggest increases in Young's modulus”.

On to Phosphatidylcholine [PC], for which the “water contact angle relative to virgin hair” value in assay [3] (aqueous solution 1 wt % active (FIG. 14)) is “recovered close to the virgin level”.
